One block for each compound: values may come before it.
Experiments:
MCF7 [1] = experiment: Antiproliferative activity against human MCF7 cells assessed as reduction in cell viability incubated for 3 days by MTT assay; type: functional, cell-based; settings: MCF7, 72 h
MDA-MB-231 [2] = experiment: Antiproliferative activity against human MDA-MB-231 cells assessed as reduction in cell viability incubated for 3 days by MTT assay; type: functional, cell-based; settings: MDA-MB-231, 72 h
A549 [3] = experiment: Synergistic antiproliferative activity against ATM-proficient human A549 cells assessed as reduction in cell viability incubated for 3 days in presence of cisplatin by MTT assay; type: functional, cell-based; settings: A549, 72 h
LoVo = experiment: Antiproliferative activity against ATM-deficient human LoVo cells assessed as reduction in cell proliferation incubated for 3 days by MTT assay; type: functional, cell-based; settings: 72 h
HCT-116 [4] = experiment: Antiproliferative activity against ATM-proficient human HCT-116 cells assessed as reduction in cell viability incubated for 3 days by MTT assay; type: functional, cell-based; settings: HCT-116, 72 h
MDA-MB-231 [5] = experiment: Synergistic antiproliferative activity against human MDA-MB-231 cells assessed as reduction in cell viability incubated for 3 days in presence of olaparib by MTT assay; type: functional, cell-based; settings: MDA-MB-231, 72 h
OVCAR-3 = experiment: Antiproliferative activity against ATM-deficient human OVCAR-3 cells assessed as reduction in cell viability incubated for 3 days by MTT assay; type: functional, cell-based; settings: OVCAR-3, 72 h
A549 [6] = experiment: Synergistic antiproliferative activity against ATM-proficient human A549 cells assessed as reduction in cell viability incubated for 3 days in presence of oxaliplatin by MTT assay; type: functional, cell-based; settings: A549, 72 h
A549 [7] = experiment: Antiproliferative activity against ATM-proficient human A549 cells assessed as reduction in cell viability incubated for 3 days in presence of AZD-1390 by MTT assay; type: functional, cell-based; settings: A549, 72 h
HCT-116 [8] = experiment: Synergistic antiproliferative activity against ATM-proficient human HCT-116 cells assessed as reduction in cell viability incubated for 3 days in presence of oxaliplatin by MTT assay; type: functional, cell-based; settings: HCT-116, 72 h
HT-29 [9] = experiment: Antiproliferative activity against ATM-proficient human HT-29 cells assessed as reduction in cell proliferation incubated for 3 days by MTT assay; type: functional, cell-based; settings: HT-29, 72 h
HT-29 [10] = experiment: Antiproliferative activity against ATM-proficient human HT-29 cells assessed as reduction in cell viability incubated for 3 days in presence of AZD-1390 by MTT assay; type: functional, cell-based; settings: HT-29, 72 h
MCF7 [11] = experiment: Synergistic antiproliferative activity against human MCF7 cells assessed as reduction in cell viability incubated for 3 days in presence of olaparib by MTT assay; type: functional, cell-based; settings: MCF7, 72 h
HCT-116 [12] = experiment: Antiproliferative activity against ATM-proficient human HCT-116 cells assessed as reduction in cell viability incubated for 3 days in presence of AZD-1390 by MTT assay; type: functional, cell-based; settings: HCT-116, 72 h
SW-620 = experiment: Antiproliferative activity against ATM-deficient human SW620 cells assessed as reduction in cell viability incubated for 3 days by MTT assay; type: functional, cell-based; settings: SW-620, 72 h
A549 [13] = experiment: Antiproliferative activity against ATM-proficient human A549 cells assessed as reduction in cell viability incubated for 3 days by MTT assay; type: functional, cell-based; settings: A549, 72 h
HCT-116 [14] = experiment: Synergistic antiproliferative activity against ATM-proficient human HCT-116 cells assessed as reduction in cell viability incubated for 3 days in presence of cisplatin by MTT assay; type: functional, cell-based; settings: HCT-116, 72 h
in vitro [15] = settings: human, liver microsomes
in vitro [16] = settings: rat, liver microsomes
in vitro [17] = settings: rat, liver microsomes; remark: listed apart in the source
[18] = molecular target: Serine/threonine-protein kinase mTOR (Homo sapiens, UniProt P42345); experiment: Inhibition of mTOR (unknown origin) using peptide as substrate preincubated for 10 mins followed by substrate addition by microplate reader analysis
[19] = molecular target: T1, Serine/threonine-protein kinase ATR (Homo sapiens, UniProt Q13535); experiment: Inhibition of ATR (unknown origin) using peptide as substrate preincubated for 10 mins followed by substrate addition by microplate reader analysis
Target sequence in this assay (Q13535 whole entry): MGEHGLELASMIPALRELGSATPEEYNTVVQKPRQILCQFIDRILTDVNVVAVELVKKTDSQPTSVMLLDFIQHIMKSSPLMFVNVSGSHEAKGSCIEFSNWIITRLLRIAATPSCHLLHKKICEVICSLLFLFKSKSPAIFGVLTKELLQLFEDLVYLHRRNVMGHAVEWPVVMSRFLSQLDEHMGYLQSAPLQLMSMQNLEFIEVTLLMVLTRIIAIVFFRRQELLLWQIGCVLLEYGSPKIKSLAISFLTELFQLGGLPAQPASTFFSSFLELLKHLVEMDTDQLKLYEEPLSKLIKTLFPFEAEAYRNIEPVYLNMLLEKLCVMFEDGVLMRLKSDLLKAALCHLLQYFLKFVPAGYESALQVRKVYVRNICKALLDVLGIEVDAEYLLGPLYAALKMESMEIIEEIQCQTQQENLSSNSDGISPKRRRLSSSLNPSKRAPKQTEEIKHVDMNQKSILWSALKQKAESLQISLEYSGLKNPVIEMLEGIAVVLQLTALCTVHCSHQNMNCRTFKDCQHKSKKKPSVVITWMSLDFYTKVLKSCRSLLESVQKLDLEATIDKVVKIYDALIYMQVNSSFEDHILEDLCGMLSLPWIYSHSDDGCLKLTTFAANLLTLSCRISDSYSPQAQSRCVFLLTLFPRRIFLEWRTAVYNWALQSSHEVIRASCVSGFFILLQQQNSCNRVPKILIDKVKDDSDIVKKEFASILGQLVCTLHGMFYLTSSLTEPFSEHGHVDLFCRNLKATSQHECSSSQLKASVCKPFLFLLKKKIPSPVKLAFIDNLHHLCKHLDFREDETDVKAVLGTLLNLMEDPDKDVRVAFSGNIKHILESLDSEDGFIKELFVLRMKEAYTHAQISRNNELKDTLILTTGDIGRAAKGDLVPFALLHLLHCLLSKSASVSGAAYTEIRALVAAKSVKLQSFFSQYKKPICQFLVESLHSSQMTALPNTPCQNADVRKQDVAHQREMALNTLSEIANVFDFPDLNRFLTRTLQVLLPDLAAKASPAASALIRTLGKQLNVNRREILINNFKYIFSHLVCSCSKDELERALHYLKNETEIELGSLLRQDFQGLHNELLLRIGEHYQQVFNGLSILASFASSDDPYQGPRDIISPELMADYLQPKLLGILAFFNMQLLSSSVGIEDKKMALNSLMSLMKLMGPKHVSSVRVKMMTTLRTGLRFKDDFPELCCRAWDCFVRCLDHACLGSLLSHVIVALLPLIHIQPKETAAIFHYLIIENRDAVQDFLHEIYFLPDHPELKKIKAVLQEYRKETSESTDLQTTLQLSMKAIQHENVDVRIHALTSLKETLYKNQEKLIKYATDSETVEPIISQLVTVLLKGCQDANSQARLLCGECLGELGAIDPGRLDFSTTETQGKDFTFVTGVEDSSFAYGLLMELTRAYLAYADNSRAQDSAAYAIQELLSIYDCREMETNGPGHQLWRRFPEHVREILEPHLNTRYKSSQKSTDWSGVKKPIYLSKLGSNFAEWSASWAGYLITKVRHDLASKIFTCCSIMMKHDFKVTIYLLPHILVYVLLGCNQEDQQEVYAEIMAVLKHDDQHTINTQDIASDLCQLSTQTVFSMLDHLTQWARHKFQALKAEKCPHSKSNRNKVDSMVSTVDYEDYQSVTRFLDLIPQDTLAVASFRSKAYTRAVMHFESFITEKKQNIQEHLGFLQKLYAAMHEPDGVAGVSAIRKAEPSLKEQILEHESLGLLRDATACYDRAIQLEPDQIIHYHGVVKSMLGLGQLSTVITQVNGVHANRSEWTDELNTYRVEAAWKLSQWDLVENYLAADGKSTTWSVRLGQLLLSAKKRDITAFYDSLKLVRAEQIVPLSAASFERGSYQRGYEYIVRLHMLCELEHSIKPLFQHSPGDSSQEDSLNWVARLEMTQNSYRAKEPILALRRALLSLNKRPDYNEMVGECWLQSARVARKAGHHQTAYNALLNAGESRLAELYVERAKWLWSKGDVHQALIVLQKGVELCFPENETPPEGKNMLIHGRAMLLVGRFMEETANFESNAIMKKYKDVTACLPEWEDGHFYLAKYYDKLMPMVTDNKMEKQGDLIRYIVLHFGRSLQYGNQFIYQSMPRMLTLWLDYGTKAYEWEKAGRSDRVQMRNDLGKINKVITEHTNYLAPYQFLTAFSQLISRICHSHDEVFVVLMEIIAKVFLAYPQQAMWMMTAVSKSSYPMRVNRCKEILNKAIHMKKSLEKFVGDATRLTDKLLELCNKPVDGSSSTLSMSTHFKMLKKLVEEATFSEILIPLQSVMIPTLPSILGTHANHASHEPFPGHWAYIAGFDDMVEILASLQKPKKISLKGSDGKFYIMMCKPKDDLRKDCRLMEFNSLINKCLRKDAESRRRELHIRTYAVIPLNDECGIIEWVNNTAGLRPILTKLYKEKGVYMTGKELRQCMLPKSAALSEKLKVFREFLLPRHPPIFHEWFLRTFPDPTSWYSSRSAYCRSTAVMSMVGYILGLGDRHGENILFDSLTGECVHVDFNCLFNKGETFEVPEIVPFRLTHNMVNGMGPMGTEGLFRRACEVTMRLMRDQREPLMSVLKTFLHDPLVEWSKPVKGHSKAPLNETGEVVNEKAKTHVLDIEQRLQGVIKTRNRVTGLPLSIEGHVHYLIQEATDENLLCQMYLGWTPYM

in vitro [20] = settings: human, liver microsomes; remark: listed apart in the source
in vitro [21] = settings: rat, liver microsomes; remark: listed apart in the source
in vitro [22] = settings: human, liver microsomes; remark: listed apart in the source
[23] = molecular target: T1, Serine/threonine-protein kinase ATR; experiment: Inhibition of ATR (unknown origin) using peptide as substrate at 0.1 uM preincubated for 10 mins followed by substrate addition by microplate reader analysis
Target sequence in this assay (Q13535 whole entry, looked up): as the sequence (Q13535 whole entry) above

IC50 (MCF7 [1]): 18600 nM
IC50 (MDA-MB-231 [2]): 73300 nM
Structure (SMILES): O=C(c1cc(Cc2n[nH]c(=O)c3ccccc23)ccc1F)N1CCN(C(=O)C2CC2)CC1 [OLAPARIB]

IC50 (A549 [3]): 481 nM
IC50 (LoVo): 231 nM
IC50 (HCT-116 [4]): 260 nM
IC50 (MDA-MB-231 [5]): 254 nM
IC50 (OVCAR-3): 563 nM
IC50 (MCF7 [1]): 2310 nM
IC50 (A549 [6]): 333 nM
IC50 (A549 [7]): 495 nM
IC50 (MDA-MB-231 [2]): 2970 nM
IC50 (HCT-116 [8]): 92 nM
IC50 (HT-29 [9]): 644 nM
IC50 (HT-29 [10]): 72 nM
IC50 (MCF7 [11]): 1220 nM
IC50 (HCT-116 [12]): 151 nM
IC50 (SW-620): 727 nM
IC50 (A549 [13]): 734 nM
IC50 (HCT-116 [14]): 137 nM
Structure (SMILES): C[C@@H]1COCCN1c1cc(C2(S(C)(=O)=O)CC2)nc(-c2cccc3[nH]ccc23)n1

half-life at 1 h, 1 µM (in vitro [15]): 11.3 min
IC50 (LoVo): 1260 nM
microsomal CLint at 1 h, 1 µM (in vitro [16]): 61.4 µL/min/mg
CLint scaled at 1 h, 1 µM (in vitro [17]): 110 mL/min/kg
IC50 [18]: 13 nM
IC50 [19]: 13 nM
CLint scaled at 1 h, 1 µM (in vitro [20]): 116 mL/min/kg
IC50 (HT-29 [9]): 4610 nM
half-life at 1 h, 1 µM (in vitro [21]): 22.7 min
microsomal CLint at 1 h, 1 µM (in vitro [22]): 123 µL/min/mg
inhibition [23]: 89.9%
Structure (SMILES): CC(=O)N1CCc2c(N3CCOC[C@H]3C)nc(-c3cccc4[nH]ccc34)nc2C1(C)C

IC50 (HCT-116 [4]): 10500 nM
IC50 (HT-29 [9]): > 30000 nM
IC50 (A549 [13]): 43000 nM
Structure (SMILES): CC(C)n1c(=O)n(C)c2cnc3cc(F)c(-c4ccc(OCCCN5CCCCC5)nc4)cc3c21 [AZD-1390]

Reference: ChEMBL document CHEMBL5331073, “Discovery of novel 7,7-dimethyl-6,7-dihydro-5H-pyrrolo[3,4-d]pyrimidines as ATR inhibitors based on structure-based drug design” (Eur J Med Chem, 2023)
